Measured values: US11028087B2, “2,6-disubstituted-9-cyclopentyl-9H-purines, use thereof as medicaments, and pharmaceutical compositions” (UNIVERZITA PALACKEHO V OLOMOUCI, priority 2017, dated 2021)

Experiments:
[1] = tested on: Kasumi-1 (acute myeloid leukemia, KIT mutation Asn822Lys); test: Calcein AM cytotoxicity assay; type: cell-based; conditions: Homo sapiens, 72 h; Kasumi-1; Calcein AM, three days; read-out: EC50 values (μM) Kasumi-1
In short: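 Kasumi-1 cells were grown in RPMI-1640 + 15% FBS, other lines at 37° C., 5% CO2, and seeded the day before compound addition in triplicates at various concentrations. After 3 days, viability was read with Calcein AM (1 μg/ml final, 1 h) as live-cell fluorescence at ex 485/em 538 nm.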

[2] = tested on: H1703 (non-small cell lung carcinoma, PDGFRA amplification); test: Calcein AM cytotoxicity assay; type: cell-based; conditions: Homo sapiens, NCI-H1703, 72 h, three days
In short: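 After overnight attachment in 96-well format, test compounds are applied at a range of concentrations in triplicate and left for three days. Calcein AM is then added to 1 μg/ml final for 1 h, and fluorescence of the calcein released by intracellular esterases measures viable cell number.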

CDK1/Cyclin B = biological target: T1, CDK1/Cyclin B (Homo sapiens, UniProt P06493); test: Kinase inhibition assay with [γ-33P]ATP; type: biochemical; conditions: histone H1, 15 μM ATP
T1 construct: made in house; host or cells: Sf9 insect cells, baculoviral infection
In short: (§1)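 Radiometric [γ-33P]ATP assay in HEPES pH 7.5 with Mg2+/Mn2+: CDK1/Cyclin B (Sf9-expressed) and purchased CDK5/p35 with 1 mg/mL histone H1 at 15 and 0.15 μM ATP respectively; FLT3 WT and FLT3-ITD with AGLT substrate at 1 μM ATP. Reactions stopped with H3PO4, spotted onto phosphocellulose and washed.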

CDK5/p35 = biological target: T2, CDK5/p35 (Homo sapiens, UniProt Q00535); test: Kinase inhibition assay with [γ-33P]ATP; type: biochemical; conditions: histone H1, 0.15 μM ATP
T2 construct: purchased ProQinase GmbH
In short: as §1

HL60 = test: Calcein AM cytotoxicity assay; type: cell-based; conditions: Homo sapiens, HL-60, 72 h, three days

T2 sequence (Q00535 whole entry): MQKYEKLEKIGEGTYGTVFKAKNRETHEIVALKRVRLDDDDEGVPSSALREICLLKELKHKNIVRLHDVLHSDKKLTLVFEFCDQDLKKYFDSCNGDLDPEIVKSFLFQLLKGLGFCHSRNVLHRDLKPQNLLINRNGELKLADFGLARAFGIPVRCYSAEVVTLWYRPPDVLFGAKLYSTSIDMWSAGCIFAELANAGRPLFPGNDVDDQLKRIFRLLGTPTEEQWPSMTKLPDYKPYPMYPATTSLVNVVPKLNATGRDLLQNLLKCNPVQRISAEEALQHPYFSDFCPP
T2 sequence (Q15078 whole entry partner): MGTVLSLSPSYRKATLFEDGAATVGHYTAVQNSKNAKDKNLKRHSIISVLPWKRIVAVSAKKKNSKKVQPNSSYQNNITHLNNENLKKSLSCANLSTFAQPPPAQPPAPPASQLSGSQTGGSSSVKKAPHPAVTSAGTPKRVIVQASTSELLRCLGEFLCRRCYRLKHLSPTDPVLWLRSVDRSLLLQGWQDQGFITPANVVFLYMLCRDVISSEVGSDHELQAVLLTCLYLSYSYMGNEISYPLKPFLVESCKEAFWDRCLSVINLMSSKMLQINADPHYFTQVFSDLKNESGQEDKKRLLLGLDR
T1 sequence (P06493 whole entry, species assumed): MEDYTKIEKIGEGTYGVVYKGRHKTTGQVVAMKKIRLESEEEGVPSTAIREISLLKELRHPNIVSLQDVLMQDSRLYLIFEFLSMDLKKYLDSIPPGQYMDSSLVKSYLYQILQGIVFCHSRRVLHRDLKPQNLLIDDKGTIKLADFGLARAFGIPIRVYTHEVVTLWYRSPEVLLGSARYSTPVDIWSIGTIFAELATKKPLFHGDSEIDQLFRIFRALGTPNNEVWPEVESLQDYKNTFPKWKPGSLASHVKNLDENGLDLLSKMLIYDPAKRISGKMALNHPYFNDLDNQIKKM
T1 sequence (P14635 whole entry partner, species assumed): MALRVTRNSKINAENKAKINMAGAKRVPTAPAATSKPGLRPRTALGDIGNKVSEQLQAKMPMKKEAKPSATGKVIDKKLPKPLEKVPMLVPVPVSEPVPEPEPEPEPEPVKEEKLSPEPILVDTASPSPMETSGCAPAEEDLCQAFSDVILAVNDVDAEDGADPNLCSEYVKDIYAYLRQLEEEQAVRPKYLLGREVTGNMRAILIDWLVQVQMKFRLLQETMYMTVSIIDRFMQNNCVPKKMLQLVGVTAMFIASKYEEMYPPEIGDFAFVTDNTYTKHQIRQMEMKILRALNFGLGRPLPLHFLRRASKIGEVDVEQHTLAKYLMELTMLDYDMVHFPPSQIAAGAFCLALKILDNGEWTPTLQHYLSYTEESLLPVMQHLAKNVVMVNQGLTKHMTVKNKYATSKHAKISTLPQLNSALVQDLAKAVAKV

IC50 (CDK1/Cyclin B) [µM] | IC50 (CDK5/p35) [µM] | Structure (SMILES) | EC50 [1] [µM] | EC50 [2] [µM] | EC50 (HL60) [µM]
– | – | NC1CCC(Nc2nc(Nc3ccc(N4CCOCC4)cc3)c3ncn(C4CCCC4)c3n2)CC1 (stereo not drawn) [Compound 1] | 0.944 | 0.189 | –
0.045 | 0.065 | NC1CCC(Nc2nc(Nc3ccc(CN4CCNCC4)cc3)c3ncn(C4CCCC4)c3n2)CC1 (stereo not drawn) [Compound 2] | 0.481 | – | 3.51
0.034 | 0.058 | CN1CCN(C(=O)c2ccc(Nc3nc(NC4CCC(N)CC4)nc4c3ncn4C3CCCC3)cc2)CC1 (stereo not drawn) [Compound 3] | 1.23 | – | 1.29
0.013 | 0.03 | CN1CC2(C1)CN(c1ccc(Nc3nc(NC4CCC(O)CC4)nc4c3ncn4C3CCCC3)cc1)C2 (stereo not drawn) [Compound 7] | – | – | –
0.037 | 0.065 | NCCNc1nc(Nc2ccc(CN3CCNCC3)cc2)c2ncn(C3CCCC3)c2n1 [Compound 14] | 0.781 | – | 2.68
– | – | CN1CCN(C(=O)c2ccc(Nc3nc(NCCCCN)nc4c3ncn4C3CCCC3)cc2)CC1 [Compound 27] | 0.637 | – | 0.989
– | – | NCCCCNc1nc(Nc2ccc(N3CC4(COC4)C3)nc2)c2ncn(C3CCCC3)c2n1 [Compound 28] | 0.839 | 0.214 | –
– | – | CN(C)CCNc1nc(Nc2ccc(CN3CCOCC3)nc2)c2ncn(C3CCCC3)c2n1 [Compound 172] | 1.5 | 0.35 | –
0.082 | 0.359 | NC1CCC(Nc2nc(Nc3ccc(N4CCCC4)cc3)c3ncn(C4CCCC4)c3n2)CC1 (stereo not drawn) [Compound 263] | 0.569 | – | 3.93
– | – | NCCCCNc1nc(Nc2ccc(N3CCOCC3)cc2)c2ncn(C3CCCC3)c2n1 [Compound 265] | – | 0.482 | –
– | – | CCN1CCN(c2ccc(Nc3nc(NCCCCN)nc4c3ncn4C3CCCC3)cc2)CC1 [Compound 266] | – | 0.978 | –
0.094 | 0.059 | NC1CCC(Nc2nc(Nc3ccc(N4CC5(COC5)C4)cc3)c3ncn(C4CCCC4)c3n2)CC1 (stereo not drawn) [Compound 272] | 0.773 | 0.412 | –

Structure (SMILES) | IC50 (CDK1/Cyclin B) [µM] | IC50 (CDK5/p35) [µM] | EC50 [1] [µM] | EC50 [2] [µM] | EC50 (HL60) [µM]
NC1CCC(Nc2nc(Nc3ccc(CN4CCOCC4)cc3)c3ncn(C4CCCC4)c3n2)CC1 (stereo not drawn) [Compound 264] | – | 0.034 | – | – | –
